Each structure is given as a SMILES string. Residues, ends and D or L forms follow the SMILES beside them. *: point of attachment. Cbz = O=C(OCc1ccccc1)*; Boc = CC(C)(C)OC(=O)*; OBn = c1ccc(CO*)cc1

Take `CC(C(N)=O)c1ccc(-n2cc(Cl)cn2)c(Cl)c1` (configuration not stated): the melting point – broadly, the temperature, or range, at which the solid turns liquid – is 131 to 132 °C. For `Cc1ccc(-c2nc(C(=O)O)c(C)s2)s1`, the melting point fell in the range of 160 to 161 °C. To `O=C(Nc1ccc(SC(F)(F)F)cc1)c1cc(Cl)c2ccccc2c1O` belongs 172 to 175 °C; to `COc1ccc(-c2cccc(OCc3ccccc3)c2)cc1`, 78.5 to 81 °C; to `NC(=O)[C@@H]1[C@H]2CC[C@H](C2)[C@@H]1Nc1nc(Nc2ccc3c(c2)CCC(NCC(F)(F)F)CC3)ncc1Cl` (some centres not stated), 218 °C. `CCn1cc(C(=O)Nc2cc(Oc3ccc4nc(NC(=O)C5CC5)cn4n3)ccc2F)c(C)n1` yielded a melting point of 199 °C.

As for `CCN(CC1(C(F)(F)F)c2cc(Cl)ccc2Nc2ncccc21)C(C)C` (configuration not stated), the melting point fell in the range of 140 to 141 °C. As to `CNC(=O)c1cc(N(C)C)ccc1Nc1nc(Nc2cc3c(cc2OC)CCN(CC(=O)N(C)C)CC3)ncc1Cl`, the melting point was in the range of 96 to 110 °C. The compound `COC(=O)C(C(=O)OC)C(Cc1c(N)cccc1C(F)(F)F)c1ccc(OC)cc1` (configuration not stated) had a melting point of 111 to 113 °C.

As to `COC(=O)c1nc(-c2ccc(Cl)c(OC)c2F)cc(NC(C)=O)c1C`, the melting point was in the range of 182 to 184 °C. Turning to `CC(=O)NCc1ncccc1OCc1ccccc1`, the melting point was 94 to 96 °C. Compound `Cc1sc(-c2cccnc2)nc1O` displayed a melting point of 201 to 202 °C. As for `CC(C)(C)OC(=O)CCS(=O)(=O)c1ccc(Br)cc1`, the melting point came to 105 °C. For the compound `CCOC(=O)c1sc(CBr)nc1C`, the melting point lay within 48 to 58 °C. Consider `COc1c(F)c(NCc2ccccc2)c(F)c(OC)c1C(=O)O`, for which the melting point lay within 85 to 86 °C. For `COc1ccc(CN(C)CCCc2ccc(NC(=O)c3cccc4c(=O)c5cccc(OC)c5sc34)cc2)cc1OC`, the melting point lay in the range of 144 to 146 °C.

`CC(C)C(C(=O)O)c1ccc(N=[N+]=[N-])cc1` (configuration not stated): the melting point is 95 to 97 °C. The compound `Nc1cc2c(Nc3ccc(OCc4ccccn4)c(Cl)c3)ncnc2cn1` showed a melting point of 247 to 250 °C. With `COC(=O)C[C@@H]1Nc2ccc(NC(=O)OC(C)(C)C)cc2CNC1=O`, the melting point lay in the range of 167 to 169 °C.

`CCCc1nn(-c2ccc(C(F)(F)F)cn2)cc1COc1ccc(CCC(=O)O)c(C)c1`: the melting point was in the range of 129 to 130 °C.

In the case of `O=C(O)C1CCSc2ccc(Cl)cc21` (configuration not stated), the melting point lay in the range of 139 to 150 °C. For `CCCc1c(OCCCOc2ccc(NC(=O)C(=O)O)cc2OC)ccc(C(C)=O)c1O`, the melting point was 125 to 127 °C. As for `COc1ccc(CC(=O)Nc2c(C)c(C)c3c(c2C)[C@@H](c2ccc(C)cc2)C(C)(C)O3)cc1`, the melting point is 166 to 167 °C.

Compound `COC(=O)c1cccc(-c2nnn(Cc3ccc(OC)cc3)n2)c1` displayed a melting point of 105 to 106 °C. `C#Cc1cnn2c(C(F)(F)F)cc(-c3cccc(C(F)(F)F)c3)nc12` had a melting point of 154 °C.

Regarding `CC1(C)[C@H](Cl)CC[C@]2(CI)OC(=O)C[C@H]12`, the melting point is 127 to 128 °C. Turning to `CCCc1c(OCC(O)COc2cccc(NC(=O)c3nnn[nH]3)c2C#N)ccc(C(C)=O)c1O` (configuration not stated), the melting point lay within 117 to 119 °C. In the case of `CC(=O)NC(C)(C)c1ccc(CN2CCN(c3ncccn3)CC2)cc1`, the melting point is 137 to 138 °C.

The compound `Cc1ccc(Cn2c(=O)c3c(N4CCN(C)CC4)cc(Cl)cc3n(Cc3ccccc3)c2=O)cc1` displayed a melting point of 92 to 97 °C. Take `COc1cc(OC)cc(N2CCN(C(=O)Nc3cc(-c4cccnc4)nc4ccccc34)CC2)c1`: the melting point lay in the range of 95 to 96 °C.

`O=C(c1ccc(Oc2ccc(F)cc2)nc1)N1CCCNCC1` yielded a melting point of 95.4 °C.

With `O=C(NCc1ccccc1)c1ccnc(NC(=O)c2ccc(C(F)(F)F)cc2)c1`, the melting point lay in the range of 181 to 183 °C. As to `O=C(O)c1cccc([N+](=O)[O-])c1SCCO`, the melting point lay in the range of 91 to 93 °C. To `CCc1ccc2c(c1)OC1(O)c3ccccc3C(=O)C21O` (configuration not stated) belongs 168 to 169 °C. In turn, `CCOC(=O)N1CC2CCN(c3c(F)cc4c(=O)c(C(=O)O)cn(C5CC5)c4c3F)C2C1` (configuration not stated) returned a melting point of 192 to 193 °C. Regarding `CCc1c(-c2ccc(O)cc2)c2ccc3ccc(COCCN4CCCC4)c1n32`, the melting point was 183 to 187 °C.

`COC(=O)CSCC(NC(=O)OC(C)(C)C)c1ccc(F)cc1` (configuration not stated) gave a melting point of 61 to 62 °C. `CCCn1c(=O)c2c(nc(C=Cc3cc(OC)c(OC)cc3S(=O)(=O)Nc3ccccc3)n2C)n(CCC)c1=O` yielded a melting point of 247 to 249 °C. To `O=Cc1cc(Cl)c(F)cc1O` belongs 103 to 104 °C; to `CC(C)(C)OCc1cccc(-c2ccc3nc(-c4cccnc4)cn3c2)c1`, 220 to 222 °C. `CNC(=O)[C@@H]1CSCN1S(=O)(=O)c1ccc(Cl)c(COc2cccc3c(-n4ccnc4)cc(C)nc23)c1Cl` gave a melting point of 120 °C.

On to `CNC(=O)Nc1ccc2[nH]cc(CCN)c2c1`, for which the melting point was 188 to 190 °C. For `CN1c2cc(Cl)ccc2-c2nc3ccccc3c3cc(OS(=O)(=O)C(F)(F)F)cc1c23`, the melting point was 239 to 241 °C. On to `CSCCC(NC(=O)OC(C)(C)C)C(=O)NC(C)C(=O)NC(C(=O)NC(CCCCNC(=O)OCc1ccccc1)C(=O)OCc1ccccc1)C(C)C` (configuration not stated) (Boc-MAVK(Cbz)-OBn; configuration not given here), for which the melting point fell in the range of 169 to 171 °C. The compound `CCS(=O)C1(Cl)CC2CC(=O)N2C1C(=O)OCc1ccccc1` (configuration not stated) had a melting point of 123 to 125 °C. `O=c1[nH]c(CCCl)c(Cl)c(=O)[nH]1` came in with a melting point of 225 °C.

`CCCCN(c1cccc(-c2ccnc3c([N+](=O)[O-])cnn23)c1)S(=O)(=O)c1ccc(OC)cc1` registered a melting point of 189 to 190 °C. Turning to `CC(C)C(=O)NCc1ccc2ccn(C3CCN(CCc4ccc(F)cc4)CC3)c2c1`, the melting point lay in the range of 97 to 98 °C. As for `Cc1cc(C#N)ccc1-c1cc(=O)c2c(O)cc(O)c([C@@H]3CCN(C)[C@H]3CO)c2o1`, the melting point is 145 to 147 °C. For the compound `CCOC(=O)C(C)Oc1ccc(OCc2ccccc2)cc1` (configuration not stated), the melting point lay in the range of 36 to 44 °C. To `O=C(CCCl)c1cc2[nH]c(=O)[nH]c2cc1Cl` belongs 201 to 204 °C. On to `COCOc1cc(Cl)c(Br)cc1C(=O)c1ncccc1OCOC`, for which the melting point lay within 70 to 72 °C.

Turning to `O=C(c1cc(Cl)cc(Cl)c1)c1cc(Cl)cc(Cl)c1`, the melting point is 157 °C. Regarding `O=C(CO[C@H]1Cc2c(cccc2OCc2ccccc2)C[C@H]1OCC(=O)N1CCOCC1)N1CCOCC1` (relative stereo), the melting point was 106 to 110 °C.

The compound `CCN(C(C)=O)c1cccc(-c2ccc(Cl)nn2)c1` gave a melting point of 116 to 119 °C. The compound `N=C(Nc1cccc(Cl)c1)Nc1nc(-c2ccccc2)cs1` returned a melting point of 134 to 135 °C. `Nc1ccc(Oc2ccc3c(c2)OCC(=O)N3)cc1` displayed a melting point of 201 to 202 °C.

`CCOC(=O)c1c(-c2ccc(CBr)cc2)nc2ccccn12`: the melting point was found to be 131 °C. Turning to `CCN(C)C(=O)c1cc(-c2ccccc2)c2sccc2c1`, the melting point came out at 93 °C. To `CC(=O)Nc1ccc(SC2SCC(O)C(O)C2O)cc1` (configuration not stated) belongs 226 to 233 °C.

Regarding `Nc1cc(O)c(Cn2nc(-c3ccc(C(F)(F)F)cc3)oc2=O)cc1Cl`, the melting point is 210 to 212 °C. Compound `COC(=O)C1Cc2c([nH]c3ccccc23)CN1` (configuration not stated) came in with a melting point of 164 to 165 °C. In turn, `C/C(=C\c1ccc(C(=O)OC(C)C)cc1)c1ccc2c(c1)C(C)(C)CCC2(C)C` registered a melting point of 119 to 120 °C. In turn, `N#Cc1ccc2cc(-c3cccc(O)c3)oc2c1` had a melting point of 225 to 227 °C. The compound `C[C@@H](n1cnc2cc(-c3ccc(Cl)cc3)sc2c1=O)[C@](O)(Cn1cncn1)c1ccc(F)cc1F` returned a melting point of 158 to 160 °C. In turn, `CC1(C)[C@@H](C(=O)O)[C@@H]1C(=O)O` (relative stereo) came in with a melting point of 217 °C. With `FC(F)(F)c1cccnc1N1CCN(c2nc3ccc(Cl)cc3[nH]2)CC1`, the melting point fell in the range of 228 to 231 °C.

Regarding `CCc1cc(NC(C)=O)cc(CC)n1`, the melting point lay within 74 to 78 °C. `Oc1ccc(-n2ccc(Nc3ccccc3)n2)cc1` gave a melting point of 182 to 185 °C.

In turn, `COC(=O)CCn1cnc2c(Cl)ncnc21` showed a melting point of 93.5 °C. `COc1ccccc1[N+]1([O-])CC[N+]([O-])(CCN(C(=O)C2CCCCC2)c2ccccc2[N+](=O)[O-])CC1` (configuration not stated) came in with a melting point of 153 to 157 °C.

On to `CCOC(=O)c1cccc(-c2ccc(C#N)cc2)c1`, for which the melting point was in the range of 91.5 to 92 °C. To `CC(C)(C)OC(=O)NCC12CCC1CNC2` (configuration not stated) belongs 83 to 86 °C; to `CCCCCCCCCCNS(=O)(=O)c1ccc(OC)cc1`, 53 to 54.5 °C; to `N=C(Nc1ccc(C2CCCC2)c(CN2CCC[C@H]2CO)c1)c1cccs1`, 132 to 133 °C. Consider `CCN1C(=O)C(C)(C)C(=O)N(C)c2cc(CN(CCn3ccc4oc(C)cc4c3=O)Cc3cncnc3)ccc21`, for which the melting point was 146 to 148 °C. `CC(C)n1c(=O)nc(-c2cnc3ccccc3c2)c2cc3c(cc21)OCO3` yielded a melting point of 279 to 281 °C.

The compound `CCOC(=O)c1cc2c(F)ccc(Br)c2s1` had a melting point of 73 to 74 °C. For `CS(=O)(=O)C(=C1CN(C(c2ccccc2)c2ccccc2)C1)c1ccccc1F`, the melting point stood at 188 °C. In the case of `COC(=O)c1ccc(S(C)(=O)=O)c(C=NO)c1C`, the melting point lay in the range of 123 to 129 °C. `CON=C(C)c1ccc(NS(C)(=O)=O)c(Oc2ccc(F)cc2F)c1` gave a melting point of 118 to 120 °C. In the case of `Nc1ncnc2c1c(-c1ccc3cn[nH]c3c1)nn2Cc1oc2ccccc2c(=O)c1-c1ccccc1`, the melting point was in the range of 140 to 143 °C. In turn, `CCCCCCCCCCCCCCCCSCC(CN=[N+]=[N-])NC(=O)OC(C)(C)C` (configuration not stated) registered a melting point of 63 to 64 °C.

In turn, `CC(C)c1c[nH]c(=O)[nH]c1=O` showed a melting point of 284 to 286 °C.

The compound `CC=CN1C(=O)CN(c2ccccc2)C1=S` showed a melting point of 74 °C. In turn, `O=C(O)Cc1ccc(Oc2ccc([N+](=O)[O-])cc2)cc1` showed a melting point of 132 to 136 °C.

`COC(=O)c1cc(=O)n2nc(COC(C)=O)nc2[nH]1` returned a melting point of 260 °C.

The values are drawn from a melting point compilation (Tetko et al.; mined from patent text by program, amines drawn as free bases though some values may be those of a salt).
